Read-outs that look alike come from different tables or passages of the source.
Key:
[1] = test system: L. salmonis; assay: Field well boat treatment, pre- vs post-treatment sea lice counts (Example 4); format: in vivo; details: 20 ppm, 60 minutes, 30 fish per pen, within 24 hours after treatment, pens A-D
Experimental: (§1) The effectiveness of imidacloprid against pre-adult and adult stages of L. salmonis and Caligus sp. infections on farmed Atlantic salmon was investigated by performing pre- and post-treatment sea lice counts on salmon undergoing a treatment with imidacloprid. This trial was conducted at a commercial salmon farm in Norway. The salmon were pumped onto a well boat and were exposed to 20 ppm imidacloprid for 60 minutes. The average weight of the salmon was 3.5 kg and the average number of salmon per pen was 180,000. 30 fish per pen were assessed for L. salmonis and Caligus sp., and the number of each L. salmonis life stage found was recorded. This was performed within 24 hours prior to treatment, and within 24 hours after treatment.
These assessments were made on four pens of salmon in total. Prior to treatment, fish were crowded within the pen to enable them to be pumped into the well boat, which is where the pre-treatment sea lice assessments were conducted. The post-treatment sea lice assessments were made by removing fish from the outflow pipe on the well boat.
At all time points, 3 fish were removed and placed into an anaesthetic bath. This was repeated 10 times until 30 fish had been assessed.
(§2) The numbers of sea lice observed per fish for this trial for each of the four tested pens according to sea lice life cycle state, pre- or post-administration of active are presented in Table 5.

[2] = test system: Lepeophtheirus salmonis; details: 20 ppm (nitenpyram 19 ppm); for percentage of sea lice that dropped from treated fish at the end of the treatment period: culled fish
Experimental: The fish were acclimatised until normal feeding behaviour resumed, up to a maximum of 10 days, prior to challenge. The fish were housed in 750 litre tanks at a stocking density of no greater than 35 kg/m3. Tanks were provided with a continuous supply of seawater at a flow rate greater than 5 L/min at a temperature of 4.8-10.4° C. The photoperiod was set at 12 hours light: 12 hours dark.
The fish were challenged in a static bath with copepodid instar of Lepeophtheirus salmonis with the appearance of egg strings freshly removed from adult female lice at a target titre of 1,250-1,700 copepodids per tank
Egg strings were harvested from gravid sea lice and incubated in upwelling chambers until nauplii eclosion. Nauplii were allowed to moult through to the copepodid instar (5 days at approx. 10° C.) and then the tank water was filtered through a 100 μm mesh before re-suspending the copepodids in 225 mL of sea water. A 25 mL sample was removed which was then split into 1-2 mL samples in a 24-well plate and the nauplii/copepodids were counted under a stereo microscope. When abundance was sufficient and a minimum of 80% were copepodids the fish were challenged for 8 hours under static flow in the dark.
Fish were randomly selected from tanks, lightly sedated in a 90 ppm MS222 solution sufficient only to induce loss of equilibrium before being sacrificed by a non-recoverable blow to the head. Between 4 and 33 fish were required per treatment.
Culled fish were then suspended in treatment tanks. Fish were suspended in the tank horizontally from cable ties (one through the opercular cavity, one around the peduncle) and wire attached to a wooden rod). One 20 L tank of test item at 20 ppm was used per day. Lice on culled fish were exposed for either 5, 10, 15, 30 or 60 minutes (negative control was only exposed for 60 minutes as this would cover the longest exposure period to be tested). The order within treatment was randomised.
(§3) Lice were monitored continuously for the duration of the exposure and behavioural observations noted, including detachment of lice from fish. At the end of exposure lice were either removed from the tank or fish, placed into small vented plastic screw-top containers (125 mL, LDPE, 25 mm hole drilled into lid and secured with 200 μm mesh), and transferred to a clean tank supplied with filtered sea water and held there for 24 h. Lice which had detached from fish were kept separate from those that had not detached.
On the day of exposure, 200 mg of the test ectoparasite treatments was added to 1 L of sea water. Only 192 mg of nitenpyram was supplied. The solution was mechanically stirred for 30 minutes, using a stirring plate and magnetic flea (VWR), at a speed sufficient to generate a strong vortex to ensure a homogenous solution. This was then transferred into an approx. 25 L clear plastic tank containing 9 L of sea water. The solution was then mixed for a further 10 minutes using a small pump (Fluval Sea CP1), which was then removed from the tank prior to addition of fish.
Each treatment requiring 1 to 4 fish per individual treatment per replicate and 2 to 13 fish per group per replicate. Treatments with negative control (sea water), dinotefuran, clothianidin and thiamethoxam were replicated twice, and for imidacloprid three times. There was only one replicate per treatment for nitenpyram. The mean number of lice used per individual treatment was 5.5 to 10, with the mean per group being 6.2-7.2 lice.

[3] = test system: Lepeophtheirus salmonis; details: 20 ppm (nitenpyram 19 ppm); for percentage responsiveness for sea lice recovered from fish at the end of the treatment period: 24 h post-treatment; for percentage responsiveness of lice recovered from tank at treatment end at 24 hours post-treatment: lice knocked off fish
Experimental: as §3
24 h post-treatment lice were removed from the screw-top containers to check if they were alive and, if so, if they were responsive. Categories were defined as follows: alive—movement detected; responsive—alive and actively avoids stimulation in a coordinated manner; dead—no movement detected.
Lice defined as responsive could potentially re-attach to a fish. After assessment lice were transferred to 70% alcohol in case determination of instar and sex was required.

[4] = test system: farmed Atlantic salmon; assay: Observation of fish during field well boat treatment (Example 4); format: in vivo; details: 20 ppm, 60 minutes
Experimental: as §1, §2

[5] = test system: fish; assay: Safety of imidacloprid treatment on fish (Example 8); format: in vivo; details: 65 ppm
Experimental: The safety of the imidacloprid treatment on fish was assessed. Fish held in a flow through tank containing 271.8 L of sea water were exposed to 65 ppm w/v of the active ingredient imidacloprid. 17.67 g of imidacloprid was dissolved in 100 ml of dimethyl sulfoxide (DMSO) and the solution was added to approximately 900 ml sea water and mixed. The flow on the through tank was disabled and the solution of imidacloprid was added.
The fish were exposed to 65 ppm imidacloprid in static water for 1 hour and observed for behavioural changes at 5-10 minute intervals. The fish were then held for a further 7 days before being terminated.

[6] = exposure 15 min, * only one louse knocked down
[7] = exposure 30 min, * only one louse knocked down
[8] = exposure 60 min, * only one louse knocked down

`O=[N+]([O-])NC1=NCCN1Cc1ccc(Cl)nc1` [imidacloprid] was tested, and the “Post-treatment sea lice count, Adult Female” value [1] was 0.0 sea lice per fish, the “Post-treatment sea lice count, Adult Male” value [1] was 0.0 sea lice per fish and the “Post-treatment sea lice count, Gravid Female” value [1] was 0.0 sea lice per fish. For the same compound, the “Post-treatment sea lice count, Pre-Adult Female” value [1] was 0.0 sea lice per fish, the “Post-treatment sea lice count, Pre-Adult Male” value [1] was 0.0 sea lice per fish and the “Post-treatment sea lice count, Total” value [1] was 0.0 sea lice per fish. The “percentage of sea lice that dropped from treated fish at the end of the treatment period” value (shortened to “percentage of sea lice that dropped”) ([2]; exposure 5 min) was 0%, the “knockdown times (mean±SEM)” value ([2]; exposure 10 min) was 481 ± 60 s and the “percentage of lice for which their knockdown time equalled that of the exposure time” value (shortened to “percentage of lice”) ([2]; exposure 10 min) was 33.3%. The “percentage of sea lice that dropped” value ([2]; exposure 10 min) was 20.0%, the “percentage of sea lice that dropped” value ([2]; exposure 15 min) was 42.9% and the “knockdown times (mean±SEM)” value [2, 6] was 586 ± 114 s. For the same compound, the “percentage of lice” value [2, 6] was 28.6%, the “percentage of sea lice that dropped” value ([2]; exposure 30 min) was 41.2% and the “knockdown times (mean±SEM)” value [2, 7] was 1029 ± 165 s. For the same compound, the “percentage of lice” value [2, 7] was 11.1%, the “percentage of sea lice that dropped” value ([2]; exposure 60 min) was 92.9% and the “knockdown times (mean±SEM)” value [2, 8] was 1209 ± 235 s. The “percentage of lice” value [2, 8] was 7.7%, the “percentage responsiveness for sea lice recovered from fish at the end of the treatment period” value ([3]; exposure 5 min) was 100% and the “percentage responsiveness for sea lice recovered from fish at the end of the treatment period” value ([3]; exposure 10 min) was 100%. For the same compound, the “percentage responsiveness of lice recovered from tank at treatment end at 24 hours post-treatment” value ([3]; exposure 10 min) was 100%, the “percentage responsiveness for sea lice recovered from fish at the end of the treatment period” value ([3]; exposure 15 min) was 45% and the “percentage responsiveness of lice recovered from tank at treatment end at 24 hours post-treatment” value ([3]; exposure 15 min) was 33%. For the same compound, the “percentage responsiveness for sea lice recovered from fish at the end of the treatment period” value ([3]; exposure 30 min) was 50%, the “percentage responsiveness of lice recovered from tank at treatment end at 24 hours post-treatment” value ([3]; exposure 30 min) was 10% and the “percentage responsiveness for sea lice recovered from fish at the end of the treatment period” value ([3]; exposure 60 min) was “no lice responsive”. For the same compound, the “percentage responsiveness for sea lice recovered from fish at the end of the treatment period” value ([3]; exposure 60 min, listed as Imidacloprid) was 0%, the “percentage responsiveness of lice recovered from tank at treatment end at 24 hours post-treatment” value ([3]; exposure 60 min) was 0% and the “Fish behaviour observed throughout treatment” value [4] was “no adverse behaviours seen”. The “Adverse reactions during a further 7 days” value ([5]; 1 hour exposure, 7 days monitoring) was “no adverse reactions”, the “External pathologies on termination” value ([5]; 1 hour exposure, terminated after 7 days) was “no external pathologies” and the “Fish behaviour during the exposure period” value ([5]; static water, 1 hour) was “No observable changes in fish behaviour”.

Reference: patent US20210244028A1, “TREATMENT FOR REMOVING ECTOPARASITES FROM FISH” (priority 2018, published 2021)
